Test results reported in article PMC6405172, “In vitro activity and mode of action of phenolic compounds on Leishmania donovani” (PLoS Neglected Tropical Diseases, 2019).
Like-named read-outs stand apart in the source and are kept apart here.

Legend:
[1] = system: Leishmania donovani promastigotes; test: Promastigote viability assay (MTT); assay type: cell-based; details: for IC50: Leishmania donovani, MTT, 72 hours at 25°C, read-out: Promastigotes IC50 (μM) ± SD; for Selectivity Index (CC50/IC50), promastigotes: CC50 Raw 264.7 / IC50 promastigotes
Description: The MTT assay was done as previously described. Briefly, promastigotes (2 x 10^5 cells) were cultured in freshly prepared M-199 medium supplemented with 10% heat inactivated fetal bovine serum in the presence or absence of varying concentrations of the phenolic compounds (0–50 μg/mL) for 72 hours at 25°C. Amphotericin B (0–50 μg/mL) and deferoxamine (0–50 μg/mL) were used as positive controls. After incubation, 5 mg/mL MTT solution was added to the promastigotes in each well and incubated for 3 hours at 25°C. In this assay, the yellow tetrazolium MTT dye was reduced to insoluble formazan crystals (purple color) in living cells using NADH as their reducing agent. Formazan crystals formed after incubation were solubilized with acidified isopropanol and incubated at 37°C for 30 min. The change in color from yellow to purple was read at an absorbance of 570 nm using Thermo Scientific Varioskan LUX. The cell viability and IC50 were determined from the concentration response curve generated using GraphPad Prism 6.0 Software.

[2] = system: Leishmania donovani promastigotes; test: Iron content analysis by atomic absorption spectroscopy; assay type: cell-based; details: 24 hours; 4x IC50 (amphotericin B IC50)
Description: The parasites were then washed twice with 1x PBS and resuspended in 50 μl deionized water. An aliquot (10 μl) of the parasite suspension was used for protein content determination as described by. The remaining parasite sample (40 μl) was digested with HNO3 for 1 hour at 80°C and overnight at 20°C. Cell digestions were stopped by the addition of 30% H2O2 and topped up to 1.5 ml with deionized water. Iron content in digested samples, spent and unused media were measured by atomic absorption spectroscopy using a Perkin Elmer Analyst 300 spectrometer.

[3] = system: Leishmania donovani intracellular amastigotes; test: Intracellular amastigote assay in infected RAW 264.7 cells; assay type: cell-based; details: for Selectivity Index (CC50/IC50), amastigotes: CC50 Raw 264.7 / IC50 intracellular amastigotes; for IC50: intracellular amastigotes in RAW 264.7 cells, 48 hours, read-out: Amastigotes IC50 (μM) ± SD
Description: (§1) Amastigote cultures were prepared as reported by Jain and colleagues. Briefly, Raw 264.7 cells (4 x 10^7 cells) were seeded in 4 chamber slides and 1 x 10^7 cells in 96 well plates and incubated for 24 hours at 37°C in 5% CO2. The RAW 264.7 cells were infected with metacyclic promastigotes (1 x 10^8 cells) at an infection ratio of 1:10 macrophage: parasites and incubated for 24 hours at 37°C in 5% CO2. The overlying medium was removed, and the monolayer intracellular amastigotes were carefully washed four times with serum free M199 to remove free parasites. Freshly prepared M199 containing 10% FBS and the test compounds at concentrations ranging from 0–50 μg/mL were added to the infected cells and incubated for 48 hours at 37°C in 5% CO2. Triplicate incubations were performed in all the experiments. The chamber slides were washed thrice after incubation with M199 without FBS. The slides were then fixed in absolute methanol for 30 sec, rehydrated in 1x PBS for 5 min and stained with DAPI for 15 min. The slides were viewed by fluorescence microscopy and the number of infected macrophages counted using ImageJ Software to determine the infectivity index and IC50 values for amastigotes.
The infected RAW 264.7 cells in the 96 wells microtiter plates were also incubated for 48 hours and washed thrice as above. Sodium dodecyl sulfate (SDS) of concentration 0.05% was added to the wells for 30 sec for controlled lysis with M199 and 10% FBS. After the 30 sec, M199 with 10% FBS was added and the plates incubated at 25°C for 72 hours for the differentiation of the rescued amastigotes to promastigotes. Following incubation, the amastigotes were subjected to MTT assay and the absorbance obtained were used to estimate IC50 values of the compounds against the amastigote forms.

[4] = system: ribonucleotide reductase (RNR); test: RT-qPCR mRNA expression of RNR; assay type: cell-based, Leishmania donovani; details: promastigotes, 24 hours; for RNR Relative quantity: Fig 7C
Description: (§2) Promastigotes (1 x 10^7 cells) were separately treated with rosmarinic acid, apigenin, amphotericin B and deferoxamine, harvested after 24 hours incubation at 25°C. The parasites were then pelleted by centrifugation at 239 × g for 10 min and the pellet was re-suspended in 1 mL TRIzol. Samples were incubated overnight at -80°C and total RNA was extracted as described by the manufacturer’s protocol using Quick-RNA MiniPrep Plus (Zymo Research, USA). Purity of total RNA was determined to be approximately 2.0 using a Nanodrop. The oligonucleotide primers for the amplification of the iron dependent enzymes—ribonucleotide reductase (RNR) (3’[…] and 5’CAACAACTTCTGCGCATCG), iron superoxide dismutase A (FeSOD) (3’[…] and 5’[…]) and Leishmania iron transporter 1 (LIT1) (3’[…] and 5’ […]) were designed using sequences of Leishmania reference genome from tritrypdb.org (http://tritrypdb.org/tritrypdb/) and Primer 3 software. The oligonucleotide primers used in amplifying the housekeeping gene Histone 2A were (3’ […] and 5’[…]). The RT-qPCR reaction was conducted as described by manufacturer’s protocol with final concentrations of oligonucleotide primers as 0.4 μM, 1x Luna Universal One-Step Reaction mix, 1x Luna WarmStart RT Enzyme Mix and template RNA ≤ 1 μg. All the RT-PCR products were standardized with respect to the endogenous control, Histone 2A. The levels of the mRNA transcripts were obtained using the QuantStudio 5 Real-Time PCR System (Applied Biosystems). The data represent three independent experiments done in triplicate and a fold change in gene expression of >2 was considered significant.

[5] = system: Leishmania donovani promastigotes; test: Parasite growth analysis (trypan blue counting); assay type: cell-based; details: IC50 concentrations; for decrease in the number of promastigotes: at 48 hours
Description: The dose dependent inhibition of phenolic compounds on promastigotes was determined by culturing promastigotes (2 x 10^5 cells) in freshly prepared M199 medium in the presence and absence of varying concentration of the test compounds, apigenin (IC50, 2x IC50, 4x IC50), rosmarinic acid (IC50, 2x IC50, 4x IC50), amphotericin B (1/2 IC50, IC50) and deferoxamine (IC50, 2x IC50, 4x IC50), for 120 hours. The number of parasites was determined by staining with trypan blue every 24 hours. Quantification of the viable parasites was determined by counting the parasites with the clear cytoplasm (non-stained) using a Neubauer hemocytometer with a cover slip. Three independent experiments were performed, and data expressed as mean ± standard deviation.

[6] = system: Leishmania donovani intracellular amastigotes; test: Infectivity index of infected macrophages (DAPI, fluorescence microscopy); assay type: cell-based; details: 48 hours; for infectivity values (infectivity index): concentration not given
Description: as §1

[7] = system: L. donovani promastigotes; test: Cell cycle analysis by flow cytometry; assay type: cell-based, Leishmania donovani; details: 24 hours; for increase in G0/G1 cells / decrease in the number of parasites at the M phase: 2x IC50 (amphotericin B 1/2 IC50); for increase in G0/G1 cells: versus untreated 34.6%
Description: Cell cycle analysis of treated and untreated L. donovani promastigotes was performed using flow cytometry. […] The fixed cells were harvested, resuspended in 1x PBS for 1 min and washed twice in 1x PBS. Staining solution (Guava cell cycle reagent) was added and incubated at room temperature for 30 min. The percentage cell count in G0, G1, S, G2 and M phases of the cell cycle were determined with BD LSR Fortessa™^. X-20 analyzer (BD Biosciences) and data was analyzed with FlowJo software.

[8] = system: iron superoxide dismutase A (FeSOD); test: RT-qPCR mRNA expression of FeSOD; assay type: cell-based, Leishmania donovani; details: promastigotes, 24 hours; for FeSOD Relative quantity: Fig 7B
Description: as §2

SMILES: C[C@@H]1[C@H](O)[C@@H](C)/C=C/C=C/C=C/C=C/C=C/C=C/C=C/[C@H](O[C@@H]2O[C@H](C)[C@@H](O)[C@H](N)[C@@H]2O)C[C@@H]2O[C@](O)(C[C@@H](O)C[C@@H](O)[C@H](O)CC[C@@H](O)C[C@@H](O)CC(=O)O[C@H]1C)C[C@H](O)[C@H]2C(=O)O [Amphotericin B, reference compound]
- IC50 [1]: 6.56 ± 0.06 µM
- concentration of iron in the spent media [2]: 0.07 mg/L
- intracellular iron levels in promastigotes [2]: 0.15 mg/L
- Selectivity Index (CC50/IC50), amastigotes [3]: 2.40
- IC50 ([3]; Leishmania donovani, RAW264.7, 48 h): 6.491 ± 0.03 µM
- IC50 [3]: 6.49 ± 0.03 µM
- increased expression of RNR [4]: 3 fold
- RNR Relative quantity [4]: 3.2
- reduction in the number of parasites ([5]; at 24 hours): 90%
- infectivity index ([6]; 3.12 μg/mL): 56
- increase in G0/G1 cells [7]: 13.1%
- change in the number of parasites at the S phase ([7]; versus untreated): significant increase
- FeSOD mRNA expression versus untreated [8]: did not significantly change
- FeSOD Relative quantity [8]: 0.7

SMILES: O=c1cc(-c2ccc(O)cc2)oc2cc(O)cc(O)c12 [Apigenin, apigenin]
- Selectivity Index (CC50/IC50), promastigotes [1]: 10.45
- IC50 [1]: 22.77 ± 0.01 µM
- concentration of iron in the spent media [2]: 0.11 mg/L
- intracellular iron levels in promastigotes [2]: 0.1 mg/L
- Selectivity Index (CC50/IC50), amastigotes [3]: 5.21
- IC50 ([3]; Leishmania donovani, RAW264.7): 45.66 ± 0.01 µM
- increased expression of RNR [4]: 3 fold
- RNR Relative quantity [4]: 2.5
- decrease in the number of promastigotes [5]: 50%
- infectivity values (infectivity index) [6]: 152.2
- decrease in the number of parasites at the M phase ([7]; versus untreated): 6.8%
- increase in G0/G1 cells [7]: 8%
- FeSOD mRNA expression versus untreated [8]: did not significantly change
- FeSOD Relative quantity [8]: 0.7

SMILES: CC(=O)N(O)CCCCCNC(=O)CCC(=O)N(O)CCCCCNC(=O)CCC(=O)N(O)CCCCCN [Deferoxamine, deferoxamine, reference compound]
- Selectivity Index (CC50/IC50), promastigotes [1]: 2.60
- IC50 [1]: 10.35 ± 0.01 µM
- concentration of iron in the spent media [2]: 0.08 mg/L
- intracellular iron levels in promastigotes [2]: 0.36 mg/L
- Selectivity Index (CC50/IC50), amastigotes [3]: 0.73
- IC50 ([3]; Leishmania donovani, RAW264.7): 36.74 ± 0.01 µM
- decrease in the expression of RNR [4]: 80 % reduction
- RNR Relative quantity [4]: 0.2
- decrease in the number of promastigotes [5]: 50%
- infectivity values (infectivity index) [6]: 177
- decrease in the number of parasites at the M phase ([7]; versus untreated): 7.7%
- increase in G0/G1 cells [7]: 7%
- FeSOD mRNA expression versus untreated [8]: 5 fold
- FeSOD Relative quantity [8]: 5.0

SMILES: O=C(/C=C/c1ccc(O)c(O)c1)O[C@H](Cc1ccc(O)c(O)c1)C(=O)O [Rosmarinic acid, rosmarinic acid]
- Selectivity Index (CC50/IC50), promastigotes [1]: 15.03
- IC50 [1]: 16.34 ± 0.1 µM
- concentration of iron in the spent media [2]: 0.09 mg/L
- intracellular iron levels in promastigotes [2]: 0.30 mg/L
- Selectivity Index (CC50/IC50), amastigotes [3]: 12.70
- IC50 ([3]; Leishmania donovani, RAW264.7): 19.21 ± 0.01 µM
- decrease in the expression of RNR [4]: 90 % reduction
- RNR Relative quantity [4]: 0.1
- decrease in the number of promastigotes [5]: 50%
- infectivity values (infectivity index) [6]: 140
- decrease in the number of parasites at the M phase ([7]; versus untreated): 8.0%
- increase in G0/G1 cells [7]: 7.1%
- FeSOD mRNA expression versus untreated [8]: did not significantly change
- FeSOD Relative quantity [8]: 1.3
